Experimental data as given in the supplement of paper PMC10307832.

Key:
Assay in all cases: relative viability (nuclei count vs DMSO), 5 days (fraction); higher = more cells survive
[1] = compound: C[C@]1(O)C[C@@H](c2nc(-c3ccc4ccc(-c5ccccc5)nc4c3)c3c(N)nccn32)C1 [Linsitinib] + O=C(CCCCCCC(=O)Nc1ccccc1)NO [Vorinostat] (partner 1 µM)
Outline: (§1)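 Dosing by pin tool came one day after lung cancer cell lines were seeded in 1536-well plates, using either one drug or a fixed anchor-drug dose plus five library-drug doses (not always all listed) in √10 steps. After 5 days, nuclei were counted on 4× images. Relative viability is treated-well nuclei count divided by vehicle-well nuclei count, and values are medians of duplicate plates.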

[2] = compound: C[C@]1(O)C[C@@H](c2nc(-c3ccc4ccc(-c5ccccc5)nc4c3)c3c(N)nccn32)C1 [Linsitinib] + NC(=O)Nc1cc(-c2cccc(F)c2)sc1C(=O)N[C@H]1CCCNC1 [AZD7762] (partner 0.2 µM)
Outline: as §1

[3] = compound: C[C@]1(O)C[C@@H](c2nc(-c3ccc4ccc(-c5ccccc5)nc4c3)c3c(N)nccn32)C1 [Linsitinib] + CC(=O)Nc1cccc(-n2c(=O)n(C3CC3)c(=O)c3c(Nc4ccc(I)cc4F)n(C)c(=O)c(C)c32)c1 [Trametinib] (partner 0.02 µM)
Outline: as §1

[4] = compound: Cc1ccc(C(=O)N(CCCN)[C@@H](c2nc3cc(Cl)ccc3c(=O)n2Cc2ccccc2)C(C)C)cc1 [Ispinesib] + Cc1cc(Nc2cc(N3CCN(C)CC3)nc(Sc3ccc(NC(=O)C4CC4)cc3)n2)n[nH]1 [Tozasertib] (partner 0.1 µM)
Outline: as §1

| Cell Line | relative viability ([1]; first compound 0.01 µM) | relative viability ([1]; first compound 0.03162 µM) | relative viability ([1]; first compound 0.1 µM) | relative viability ([1]; first compound 0.3162 µM) | relative viability ([1]; first compound 1 µM) | relative viability ([2]; first compound 0.01 µM) | relative viability ([2]; first compound 0.03162 µM) | relative viability ([2]; first compound 0.1 µM) | relative viability ([2]; first compound 0.3162 µM) | relative viability ([2]; first compound 1 µM) | relative viability ([3]; first compound 0.01 µM) | relative viability ([3]; first compound 0.03162 µM) | relative viability ([3]; first compound 0.1 µM) | relative viability ([3]; first compound 0.3162 µM) | relative viability ([3]; first compound 1 µM) | relative viability ([4]; first compound 0.001 µM) | relative viability ([4]; first compound 0.003162 µM) | relative viability ([4]; first compound 0.01 µM) | relative viability ([4]; first compound 0.03162 µM) | relative viability ([4]; first compound 0.1 µM) |
| --- | --- | --- | --- | --- | --- | --- | --- | --- | --- | --- | --- | --- | --- | --- | --- | --- | --- | --- | --- | --- |
| 201T | 0.941 | 1.06 | 0.972 | 0.487 | 0.832 | 0.554 | 0.59 | 0.675 | 0.509 | 0.612 | 0.7 | 0.736 | 0.702 | 0.72 | 0.753 | 0.919 | 0.979 | 0.998 | 0.999 | 0.587 |
| A-427 | 0.859 | 0.905 | 0.892 | – | 0.808 | 0.749 | 0.624 | 0.742 | – | 0.535 | 0.779 | 0.69 | 0.707 | – | 0.626 | 0.203 | 0.216 | 0.189 | 0.185 | 0.23 |
| ABC-1 | 1.4 | 1.2 | 0.97 | 0.803 | 0.796 | – | – | 0.765 | 0.861 | 0.602 | – | – | – | – | – | 0.197 | 0.174 | 0.21 | 0.182 | 0.184 |
| BEN | 0.513 | 0.573 | 0.534 | 0.434 | 0.474 | 0.563 | 0.771 | 0.617 | 0.742 | 0.677 | 1.12 | 1.02 | 1.03 | 0.869 | 1.11 | 0.508 | 0.464 | 0.548 | 0.633 | 0.574 |
| CAL-12T | 0.69 | 0.744 | 0.727 | 0.524 | 0.569 | 0.67 | 0.595 | 0.734 | 0.577 | 0.743 | 0.347 | 0.364 | 0.292 | 0.28 | 0.318 | 0.244 | 0.361 | 0.296 | 0.213 | 0.222 |
| COR-L23 | 0.431 | 0.267 | 0.402 | 0.357 | 0.302 | – | – | – | – | – | 0.623 | 0.505 | 0.548 | 0.475 | 0.507 | 0.26 | 0.231 | 0.204 | 0.178 | 0.152 |
| COR-L 105 | 0.749 | 0.872 | 0.712 | 0.389 | 0.609 | – | – | – | – | – | 0.427 | 0.448 | 0.441 | 0.412 | 0.389 | 0.378 | 0.358 | 0.365 | 0.343 | 0.329 |
| ChaGo-K-1 | 0.798 | 0.774 | 0.78 | – | 0.694 | 0.893 | 0.91 | 0.855 | – | 0.799 | 0.947 | 0.973 | 0.892 | – | 0.961 | 0.22 | 0.225 | 0.234 | 0.248 | 0.222 |
| EKVX | 0.753 | 0.785 | 0.798 | 0.481 | 0.496 | – | 0.662 | 0.717 | 0.707 | 0.631 | – | 0.321 | 0.436 | 0.234 | 0.294 | 0.417 | 0.386 | 0.424 | 0.373 | 0.223 |
| EMC-BAC-2 | 0.44 | 0.441 | 0.426 | 0.398 | 0.214 | 1.12 | 1.07 | 1.1 | 0.775 | 0.553 | 0.93 | 0.939 | 0.82 | 0.575 | 0.593 | 0.28 | 0.189 | 0.289 | 0.292 | 0.261 |
| EPLC-272H | 0.533 | 0.383 | 0.548 | 0.297 | 0.484 | 0.186 | 0.22 | 0.221 | – | 0.334 | 0.245 | 0.25 | 0.296 | – | 0.26 | 0.211 | 0.448 | 0.24 | 0.114 | 0.25 |
| H3255 | – | 0.761 | 0.698 | 0.396 | 0.682 | 0.7 | 0.884 | 0.813 | 0.69 | 0.806 | – | 0.664 | 0.593 | 0.528 | 0.579 | 0.599 | 0.767 | 0.717 | 0.601 | 0.614 |
| HARA | 0.51 | 0.513 | 0.648 | 0.347 | 0.351 | 0.355 | 0.237 | 0.344 | – | 0.179 | 0.448 | 0.809 | 0.878 | – | 0.623 | 0.151 | 0.115 | 0.332 | 0.0895 | 0.107 |
| HCC-15 | 0.822 | 0.752 | 0.763 | 0.633 | 0.705 | 1.07 | 1.15 | 1.16 | 0.839 | 1.11 | 0.376 | 0.376 | 0.286 | 0.264 | 0.287 | 0.48 | 0.414 | 0.505 | 0.281 | 0.227 |
| HCC-44 | 1.02 | 1.01 | 1.03 | 0.734 | 1.01 | 1.01 | 0.962 | 0.995 | 0.855 | 0.925 | 0.94 | 1.04 | 1.01 | 0.716 | 0.923 | 0.928 | 1.05 | 1.09 | 0.679 | 0.209 |
| HCC-78 | – | 0.47 | 0.462 | 0.402 | 0.315 | – | 0.56 | 0.415 | 0.666 | 0.472 | – | 0.913 | 0.698 | 0.736 | 0.578 | 0.444 | 0.426 | 0.521 | 0.449 | 0.407 |
| HCC-366 | 0.41 | 0.328 | 0.324 | 0.218 | 0.0911 | 0.261 | 0.228 | 0.301 | 0.361 | 0.12 | 0.369 | 0.381 | 0.402 | 0.317 | 0.202 | 0.172 | 0.13 | 0.663 | 0.0791 | 0.0441 |
| HCC-827 | 0.207 | 0.829 | 0.799 | – | 0.639 | 0.151 | 0.223 | 0.207 | – | 0.221 | 0.526 | 0.616 | 0.522 | – | 0.602 | 0.43 | 0.534 | 0.43 | 0.446 | 0.372 |
